For twelve compounds, IC50 results are on record in patent US9345740B2, “IAP antagonists” (BRISTOL-MYERS SQUIBB COMPANY, priority 2012, dated 2016).

Holding throughout (type): binding
For assay [1], the target named is XIAP BIR3 (N-His-Tb-BIR3(241-356, XIAP)) (Homo sapiens (Human), UniProt P98170).
For assay [2], the target named is XIAP BIR2 (His-BIR2 (124-240/C202A/C213G)) (Homo sapiens (Human), UniProt P98170, C202A/C213G). Put plainly: XIAP-BIR2/SMAC Peptide AlphaScreen Assay. To be noted: footnote *: XIAP BIR2 alpha screen (printed in the BIR2-3 column). The protocol: C. XIAP-BIR2/SMAC Peptide AlphaScreen Assay
Assays were performed in white, flat-bottom, 384-well ProxiPlates (Perkin Elmer). The final assay volume was 10 μL prepared from additions of His-BIR2 (124-240/C202A/C213G), Biotinylated SMAC peptide, and test compounds in assay buffer consisting of 25 mM Hepes, 100 mM NaCl, 0.1% BSA, and 5 mM CaCl2. The reaction was incubated at room temperature for 60 minutes. After 60 minutes, 2.5 μL of Alphascreen detection reagent (Perkin Elmer) was added to the reaction mixture and incubated at room temperature in the dark for 120 minutes. The Alphascreen signal generated by the reaction was detected on the Envision Plate Reader Inhibition data were calculated from an Alphascreen signal generated by the no protein control reactions for 100% inhibition and vehicle-only reactions for 0% inhibition. The final concentration of reagents in the assay was 50 nM His-BIR2 (124-240/C202A/C213G), 50 nM.
Biotinylated SMAC peptide, 4 μg/mL Alphascreen detection reagents, and 0.5% DMSO. Dose response curves were generated to determine the concentration required for inhibiting 50% of the activity (IC50). Compounds were dissolved at 10 mM in dimethylsulfoxide (DMSO) and evaluated at eleven concentrations. IC50 values were derived by non-linear regression analysis.
In general terms: In Alpha technology, singlet oxygen from a donor bead excites a nearby acceptor bead.

The target of assay [3] is XIAP BIR3 (His-BIR3 (241-356, XIAP)) (Homo sapiens (Human), UniProt P98170).
The target in assay [4] is XIAP BIR2-3 (His-BIR2-3 (125-356, C202A/C213G, XIAP)) (Homo sapiens (Human), UniProt P98170, C202A/C213G).
XIAP BIR2-3 (His-BIR2-3 (125-356, C202A/C213G, XIAP)), sequence (P98170 whole entry C202A/C213G, looked up): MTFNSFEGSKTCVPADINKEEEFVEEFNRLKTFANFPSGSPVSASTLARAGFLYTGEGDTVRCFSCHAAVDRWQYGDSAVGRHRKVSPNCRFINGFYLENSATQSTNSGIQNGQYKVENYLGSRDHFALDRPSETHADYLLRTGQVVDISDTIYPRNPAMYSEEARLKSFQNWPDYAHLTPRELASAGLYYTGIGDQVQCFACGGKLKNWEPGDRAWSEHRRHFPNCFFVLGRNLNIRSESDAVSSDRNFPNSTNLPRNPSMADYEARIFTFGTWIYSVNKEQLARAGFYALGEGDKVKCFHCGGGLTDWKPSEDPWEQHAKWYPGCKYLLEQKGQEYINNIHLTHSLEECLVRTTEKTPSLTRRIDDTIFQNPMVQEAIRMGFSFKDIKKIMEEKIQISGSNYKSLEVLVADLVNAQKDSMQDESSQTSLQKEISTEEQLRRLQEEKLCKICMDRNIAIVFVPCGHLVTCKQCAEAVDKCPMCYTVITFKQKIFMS

XIAP BIR3 (His-BIR3 (241-356, XIAP)), sequence (P98170 whole entry, looked up): as the sequence (P98170 whole entry C202A/C213G, looked up) above, with A202C, G213C counted along it
XIAP BIR2 (His-BIR2 (124-240/C202A/C213G)), sequence (P98170 whole entry C202A/C213G, looked up): as the sequence (P98170 whole entry C202A/C213G, looked up) above
XIAP BIR3 (N-His-Tb-BIR3(241-356, XIAP)), sequence (P98170 whole entry, looked up): as the sequence (P98170 whole entry C202A/C213G, looked up) above, with A202C, G213C counted along it

As for `CN[C@@H](C)C(=O)N[C@H](C(=O)N1C[C@@H](NC(=O)c2ccc(CN(C(=O)[C@@H]3C[Si](C)(C)CN3C(=O)[C@@H](NC(=O)[C@H](C)NC)C(C)(C)C)[C@H](C)c3cccc(F)c3F)cc2)C[C@H]1C(=O)N[C@@H]1CCCc2ccccc21)C(C)(C)C` [Example 12, (R)-N-((R)-1-(2,3-Difluorophenyl)ethyl)-1-((S)-3,3-dimethyl-2-((S)-2-(methylamino)propanamido)butanoyl)-N-(4-(((3S,5S)-1-((S)-3,3-dimethyl-2-((S)-2-(methylamino)propanamido)butanoyl)-5-(((R)-1,2,3,4-tetrahydronaphthalen-1-yl)carbamoyl)pyrrolidin-3-yl)carbamoyl)benzyl)-3,3-dimethyl-1,3-azasilolidine-5-carboxamide], the IC50 – broadly, the concentration that inhibits the measured activity by half – worked out at 170 nM in assay [1] and 590 nM in assay [2].

Regarding `CN[C@@H](C)C(=O)NC(Cc1ccc(NC(=O)c2ccc(CO[C@H]3C[C@@H](C(=O)NC4CCCc5ccccc54)N(C(=O)[C@@H](NC(=O)[C@H](C)NC)C(C)(C)C)C3)cc2)cc1)C(=O)N1C[Si](C)(C)C[C@H]1C(=O)NC1CCCc2ccccc21` (stereo partly drawn) [Example 3, (R)-1-((S)-3-(4-(4-((((3S,5S)-1-((S)-3,3-Dimethyl-2-(S)-2-(methylamino)propanamido)butanoyl)-5-(((R)-1,2,3,4-tetrahydronaphthalen-1-yl)carbamoyl)pyrrolidin-3-yl)oxy)methyl)benzamido)phenyl)-(2-((S)-2-(methylamino)propanamido)propanoyl)-3,3-dimethyl-N—((R)-1,2,3,4-tetrahydronaphthalen-1-yl)-1,3-azasilolidine-5-carboxamide], the IC50 in assay [3] is 14 nM; in assay [4], 5 nM.

For `CN[C@@H](C)C(=O)N[C@@H](Cc1ccc(NC(=O)N[C@H]2C[C@@H](C(=O)N[C@@H]3CCCc4ccccc43)N(C(=O)[C@@H](NC(=O)[C@H](C)NC)C(C)(C)C)C2)cc1)C(=O)N1C[Si](C)(C)C[C@H]1C(=O)N[C@@H]1CCCc2ccccc21` [Example 2, (R)-1-((S)-3-(4-(3-((3S,5S)-1-((S)-3,3-Dimethyl-2-((S)-2-(methylamino)propanamido)butanoyl)-5-(((R)-1,2,3,4-tetrahydronaphthalen-1-yl)carbamoyl)pyrrolidin-3-yl)ureido)phenyl)-2-((S)-2-(methylamino)propanamido)propanoyl)-3,3-dimethyl-N—((R)-1,2,3,4-tetrahydronaphthalen-1-yl)-1,3-azasilolidine-5-carboxamide], the IC50 in assay [3] was found to be 16 nM; in assay [4], 6 nM.

With `CN[C@@H](C)C(=O)N[C@@H](Cc1ccc(C#Cc2ccc(C(=O)N[C@H]3C[C@@H](C(=O)N[C@@H]4CCCc5ccccc54)N(C(=O)[C@@H](NC(=O)[C@H](C)NC)C(C)(C)C)C3)cc2)cc1)C(=O)N1C[Si](C)(C)C[C@H]1C(=O)N[C@@H]1CCCc2ccccc21` [Example 5, (R)-1-((S)-3-(4-((4-(((3S,5S)-1-((S)-3,3-Dimethyl-2-((S)-2-(methylamino)propanamido)butanoyl)-5-(((R)-1,2,3,4-tetrahydronaphthalen-1-yl)carbamoyl)pyrrolidin-3-yl)carbamoyl)phenyl)ethynyl)phenyl)-2-((S)-2-(methylamino)propanamido)propanoyl)-3,3-dimethyl-N—((R)-1,2,3,4-tetrahydronaphthalen-1-yl)-1,3-azasilolidine-5-carboxamide], the IC50 in assay [3] amounted to 103 nM; in assay [4] it was 341 nM.

With `CN[C@@H](C)C(=O)N[C@@H](Cc1ccc(C(=O)N[C@H]2C[C@@H](C(=O)N[C@@H]3CCCc4ccccc43)N(C(=O)[C@@H](NC(=O)[C@H](C)NC)C(C)(C)C)C2)cc1)C(=O)N1C[Si](C)(C)C[C@H]1C(=O)N[C@@H]1CCCc2ccccc21` [Example 10, (R)-1-((S)-3-(4-(((3S,5S)-1-((S)-3,3-dimethyl-2-((S)-2-(methylamino)propanamido)butanoyl)-5-(((R)-1,2,3,4-tetrahydronaphthalen-1-yl)carbamoyl)pyrrolidin-3-yl)carbamoyl)phenyl)-2-((S)-2-(methylamino)propanamido)propanoyl)-3,3-dimethyl-N-((R)-1,2,3,4-tetrahydronaphthalen-1-yl)-1,3-azasilolidine-5-carboxamide], the IC50 in assay [3] amounted to 8 nM; in assay [4], 5 nM.

`CC[C@H](NC)C(=O)N[C@@H](Cc1ccc(NC(=O)c2ccc(C(=O)N[C@H]3C[C@@H](C(=O)N[C@@H]4CCCc5ccccc54)N(C(=O)[C@@H](NC(=O)[C@H](C)NC)C(C)(C)C)C3)cc2)cc1)C(=O)N1C[Si](C)(C)C[C@H]1C(=O)N[C@@H]1CCCc2ccccc21` [Example 11, N1-((3S,5S)-1-((S)-3,3-dimethyl-2-((S)-2-(methylamino)propanamido)butanoyl)-5-(((R)-1,2,3,4-tetrahydronaphthalen-1-yl)carbamoyl)pyrrolidin-3-yl)-N4-(4-((S)-3-((R)-3,3-dimethyl-5-(((R)-1,2,3,4-tetrahydronaphthalen-1-yl)carbamoyl)-1,3-azasilolidin-1-yl)-2-((S)-2-(methylamino)butanamido)-3-oxopropyl)phenyl)terephthalamide]: the figures for the IC50 in assay [3] and in assay [4] were 30 nM and 6 nM, respectively.

Consider `CN[C@@H](C)C(=O)NC(Cc1ccc(NC(=O)c2ccc(C(=O)N[C@H]3C[C@@H](C(=O)NC4CCCc5ccccc54)N(C(=O)[C@@H](NC(=O)[C@H](C)NC)C(C)(C)C)C3)cc2)cc1)C(=O)N1C[Si](C)(C)C[C@H]1C(=O)NC1CCCc2ccccc21` (stereo partly drawn) [Example 1], for which the IC50 in assay [3] is 12 nM; in assay [4], 4 nM.

`CN[C@@H](C)C(=O)N[C@@H](Cc1ccc(CCc2ccc(C(=O)N[C@H]3C[C@@H](C(=O)N[C@@H]4CCCc5ccccc54)N(C(=O)[C@@H](NC(=O)[C@H](C)NC)C(C)(C)C)C3)cc2)cc1)C(=O)N1C[Si](C)(C)C[C@H]1C(=O)N[C@@H]1CCCc2ccccc21` [Example 6, (R)-1-((S)-3-(4-(4-(((3S,5S)-1-((S)-3,3-Dimethyl-2-((S)-2-(methylamino)propanamido)butanoyl)-5-(((R)-1,2,3,4-tetrahydronaphthalen-1-yl)carbamoyl)pyrrolidin-3-yl)carbamoyl)phenethyl)phenyl)-2-((S)-2-(methylamino)propanamido)propanoyl)-3,3-dimethyl-N—((R)-1,2,3,4-tetrahydronaphthalen-1-yl)-1,3-azasilolidine-5-carboxamide]: the IC50 in assay [3] worked out at 84 nM; in assay [4], 205 nM.

Consider `CN[C@@H](C)C(=O)N[C@H](C(=O)N1C[C@@H](NC(=O)c2ccc(CN(C(=O)[C@@H]3C[Si](C)(C)CN3C(=O)[C@@H](NC(=O)[C@H](C)NC)C(C)(C)C)[C@H](C)c3ccccc3F)cc2)C[C@H]1C(=O)N[C@@H]1CCCc2ccccc21)C(C)(C)C` [Example 9, (R)-1-((S)-3,3-Dimethyl-2-((S)-2-(methylamino)propanamido)butanoyl)-N-(4-(((3S,5S)-1-((S)-3,3-dimethyl-2-((S)-2-(methylamino)propanamido)butanoyl)-5-(((R)-1,2,3,4-tetrahydronaphthalen-1-yl)carbamoyl)pyrrolidin-3-yl)carbamoyl)benzyl)-N—((R)-1-(2-fluorophenyl)ethyl)-3,3-dimethyl-1,3-azasilolidine-5-carboxamide], for which the IC50 in assay [3] came to 52 nM; in assay [4], 9 nM.

With `CN[C@@H](C)C(=O)NC(Cc1ccc(C(=O)Nc2ccc(C(=O)N[C@H]3C[C@@H](C(=O)NC4CCCc5ccccc54)N(C(=O)[C@@H](NC(=O)[C@H](C)NC)C(C)(C)C)C3)cc2)cc1)C(=O)N1C[Si](C)(C)C[C@H]1C(=O)NC1CCCc2ccccc21` (stereo partly drawn) [Example 4], the IC50 in assay [3] turned out to be 14 nM; in assay [4], 4 nM.

For the compound `CN[C@@H](C)C(=O)N[C@@H](Cc1ccc(C#CC(=O)N[C@H]2C[C@@H](C(=O)N[C@@H]3CCCc4ccccc43)N(C(=O)[C@@H](NC(=O)[C@H](C)NC)C(C)(C)C)C2)cc1)C(=O)N1C[Si](C)(C)C[C@H]1C(=O)N[C@@H]1CCCc2ccccc21` [Example 8, (R)-1-((S)-3-(4-(3-(((3S,5S)-1-((S)-3,3-Dimethyl-2-((S)-2-(methylamino)propanamido)butanoyl)-5-(((R)-1,2,3,4-tetrahydronaphthalen-1-yl)carbamoyl)pyrrolidin-3-yl)amino)-3-oxoprop-1-yn-1-yl)phenyl)-2-((S)-2-(methylamino)propanamido)propanoyl)-3,3-dimethyl-N—((R)-1,2,3,4-tetrahydronaphthalen-1-yl)-1,3-azasilolidine-5-carboxamide], the IC50 in assay [3] stood at 3 nM; in assay [4], 4 nM.

`CN[C@@H](C)C(=O)NC(Cc1ccc(-c2ccc(C(=O)NC3C[C@@H](C(=O)NC4CCCc5ccccc54)N(C(=O)[C@@H](NC(=O)[C@H](C)NC)C(C)(C)C)C3)cc2)cc1)C(=O)N1C[Si](C)(C)C[C@H]1C(=O)NC1CCCc2ccccc21` (stereo partly drawn) [Example 7]: the IC50 came to 93 nM in assay [3] and 307 nM in assay [4].
